Results as given in patent US20090286878A1, “POLYOL DERIVED ANTI-MICROBIAL AGENTS AND COMPOSITIONS” (priority 2008, published 2009).

Key:
Test in all cases: Fungicidal activity, modified EN12175 test
Type in all cases: cell-based
Aureobasidium pullulans = conditions: 1% concentration; for A. pull. log reduction 30 min: 30 min contact; for A. pull. log reduction 30 min / A. pull. log reduction 1 h / A. pull. log reduction 24 h: vs water control; for A. pull. log reduction 1 h: 1 h contact; for A. pull. log reduction 24 h: 24 h contact; for A. pull. cfu/mL (residual spore cell count): inoculum 4.0E+06 cfu/mL, room temperature
Experimental: (§1) Fungicidal activity is tested according to trivial modifications of the standard EN12175 test method. […] Penicillium funiculosum, Aspergillus niger and Aureobasidium pullulans are tested as important mold strains. The resulting cell count reduction is compared to a water control. […]

Aspergillus niger = conditions: 1% concentration; for A. niger log reduction 30 min: 30 min contact; for A. niger log reduction 30 min / A. niger log reduction 1 h / A. niger log reduction 24 h: vs water control; for A. niger log reduction 1 h: 1 h contact; for A. niger log reduction 24 h: 24 h contact; for A. niger cfu/mL (residual spore cell count): inoculum 2.60E+08 cfu/mL, room temperature
Experimental: as §1

Penicillium funiculosum = conditions: 1% concentration; for P. funic. log reduction 30 min: 30 min contact; for P. funic. log reduction 30 min / P. funic. log reduction 1 h / P. funic. log reduction 24 h: vs water control; for P. funic. log reduction 1 h: 1 h contact; for P. funic. log reduction 24 h: 24 h contact; for P. funic. cfu/mL (residual spore cell count): inoculum 3.60E+07 cfu/mL, room temperature
Experimental: as §1

Row | Compound | A. pull. log reduction 30 min (Aureobasidium pullulans) [log] | A. pull. log reduction 1 h (Aureobasidium pullulans) [log] | A. pull. log reduction 24 h (Aureobasidium pullulans) [log] | A. pull. cfu/mL (residual spore cell count) (Aureobasidium pullulans) [cfu/mL] | A. niger log reduction 30 min (Aspergillus niger) [log] | A. niger log reduction 1 h (Aspergillus niger) [log] | A. niger log reduction 24 h (Aspergillus niger) [log] | A. niger cfu/mL (residual spore cell count) (Aspergillus niger) [cfu/mL] | P. funic. log reduction 30 min (Penicillium funiculosum) [log] | P. funic. log reduction 1 h (Penicillium funiculosum) [log] | P. funic. log reduction 24 h (Penicillium funiculosum) [log] | P. funic. cfu/mL (residual spore cell count) (Penicillium funiculosum) [cfu/mL]
1 | CCCCCCCCCCCCNCCCCCC(=O)OCC(CC)(COC(=O)CCCCCNCCCCCCCCCCCC)COC(=O)CCCCCNCCCCCCCCCCCC [Ex 16] | >4 | >4 | >4 | <10 | >4 | >4 | >4 | <10 | >4 | >4 | >4 | <10
2 | CCCCCCCCNCCC(=O)OCC(CC)(COC(=O)CCNCCCCCCCC)COC(=O)CNCCCCCCCC [Ex 18] | >4 | >4 | >4 | <10 | >4 | >4 | >4 | <10 | >4 | >4 | >4 | <10
